From patent publication US10858364B2, “Imidazopyrazine inhibitors of Bruton's tyrosine kinase” (Acerta Pharma B.V., priority 2016, dated 2020) come the findings set out here.

Each structure is given as a SMILES string.

Series [1] deals with BTK (Homo sapiens (Human), UniProt Q06187). As to the kind of experiment: BTK IMAP with ATP competition and variable pre-incubation. Type of series: biochemical. On the procedure: BTK enzyme activity with ATP competition was measured using the IMAP (immobilized metal ion affinity-based fluorescence polarization) assay. BTK enzyme (Millipore) was diluted to 16 nM, respectively in Kinase Reaction (KR) buffer (10 mM Tris-HCl, 10 mM MgCl2, 0.01% Tween-20, 0.1% NaN3, 1 mM DTT, 2 mM MnCl2, pH 7.5). Serial dilutions […] from 1 mM to 31.6 nM of test compounds were made in 100% DMSO. The dilutions in DMSO were then diluted 25-fold in KR-buffer. Final compound concentrations ranged from 10 μM to 0.316 nM. The assay is performed as follows: 5 μL/well of test compound in KR buffer (final DMSO concentration in the assay is 1%) was mixed with 5 µl/well of BTK or ITK enzyme (final concentration in the assay was 4 and 8 nM for BTK and ITK, respectively). Test compounds and kinase enzyme were pre-incubated 0, 30, or 60 min, before adding 5 μL/well of 200 nM Fluorescein labeled substrate peptide (Blk/Lyntide substrate, Molecular Devices) in KR-buffer. Final peptide substrate concentration in assay was 50 nM. The kinase assay was started by adding 5 μL/well of 20, 100, or 400 μM ATP in KR-buffer (final ATP concentration was 5, 25, or 100 μM ATP). Following incubation for 2h at room temperature the enzyme reaction was stopped by adding 40 μL/well IMAP Progressive Binding Solution (Molecular Devices), according to product instructions, using 60% lx buffer A and 40% lx buffer B with 800× diluted beads). After 60 min incubation at room temperature in the dark the FP signal was read. Fluorescence at 535 nm was measured using parallel and perpendicular filters to determine differences in rotation due to binding of the phosphorylated substrate peptide to the beads. Values were calculated as percentage of the difference in readout (AmPi) of the controls with and without ATP. IC50 values were determined by curve fitting of the experimental results using Dotmatics. […] M27 was tested in the BTK IMAP ATP competition assays with variable pre-incubation times (0, 30, and 60 minutes) and ATP concentrations (5, 25 and 100 μM). The results in Table 2 and FIG. 2 confirm that M27 is covalent inhibitors of BTK. […] Furthermore, there is loss of ATP competition following pre-incubation of BTK with M27, a result that is typical for compounds that bind covalently.

In series [2] the test system is CYP3A4. Put plainly: CYP induction, CYP3A4. Format: in vitro ADME.

Chain of BTK (Q06187 whole entry): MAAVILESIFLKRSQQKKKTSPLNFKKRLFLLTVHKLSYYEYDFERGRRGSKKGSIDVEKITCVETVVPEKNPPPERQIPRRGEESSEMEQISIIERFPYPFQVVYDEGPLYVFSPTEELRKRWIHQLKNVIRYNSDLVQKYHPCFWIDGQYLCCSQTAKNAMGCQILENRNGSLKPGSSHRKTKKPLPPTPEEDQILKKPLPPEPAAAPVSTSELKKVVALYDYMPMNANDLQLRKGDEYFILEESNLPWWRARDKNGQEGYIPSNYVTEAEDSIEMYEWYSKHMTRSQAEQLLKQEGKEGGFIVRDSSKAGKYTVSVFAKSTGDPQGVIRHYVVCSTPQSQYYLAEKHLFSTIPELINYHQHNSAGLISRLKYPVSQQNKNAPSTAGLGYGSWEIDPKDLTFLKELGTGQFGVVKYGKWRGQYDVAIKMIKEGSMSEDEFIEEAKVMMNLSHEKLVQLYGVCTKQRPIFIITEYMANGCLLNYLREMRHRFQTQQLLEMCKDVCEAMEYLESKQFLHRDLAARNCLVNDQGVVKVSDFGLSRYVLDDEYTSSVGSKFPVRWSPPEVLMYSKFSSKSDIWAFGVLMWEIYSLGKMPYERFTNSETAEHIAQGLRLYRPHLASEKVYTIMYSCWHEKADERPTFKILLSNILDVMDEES

Turning to `CC#CC(=O)NCCCC(=O)c1nc(-c2ccc(C(=O)Nc3ccccn3)cc2)c2c(N)nccn12` [Formula (I), 4-(8-amino-3-(4-(but-2-ynamido)butanoyl)imidazo[1,5-a]pyrazin-1-yl)-N-(pyridin-2-yl)benzamide], the IC50 in series [1] (5 μM ATP, 0 minute pre-incubation) amounted to 27.3 nM; in series [1] (5 μM ATP, 30 minutes pre-incubation) it was 12.6 nM; in series [1] (5 μM ATP, 60 minutes pre-incubation), 6.9 nM; in series [1] (25 μM ATP, 0 minute pre-incubation), 72.4 nM; in series [1] (25 μM ATP, 30 minutes pre-incubation) it was 18.1 nM; in series [1] (25 μM ATP, 60 minutes pre-incubation) it was 9.5 nM. The IC50 in series [1] (100 μM ATP, 0 minute pre-incubation) was 101 nM; in series [1] (100 μM ATP, 30 minutes pre-incubation), 23.7 nM; in series [1] (100 μM ATP, 60 minutes pre-incubation) it was 10.8 nM. For the same molecule, in series [2], the CYP3A4 induction entry is recorded as “weak inducer”.

For orientation: IC50 means the midpoint of a concentration-inhibition curve. Lower therefore signals higher potency.
